Results: patent publication US6500819B2, “Bicyclolactam compounds, use thereof and intermediates for preparing thereof” (Taiho Pharmaceutical Company Limited, priority 1994, dated 2002)

Experiments:
[1] = system: ddY mice; experiment: Muscle relaxant effect (traction method), second part
Experimental: (§1) Muscle Relaxant Effect (Traction Method)
(§2) Compound 1′a-1, the comparison compound, diazepam or buspirone was suspended in a 0.5% sodium carboxymethyl cellulose solution, and the suspension was orally administered to 3- to 4-week-old male ddY mice (in groups of 5) in a volume of 10 ml/kg one hour before the start of experiment.
(§3) With reference to a method described in Japan. J. Pharmacol., 49. 337˜349(1989), the foreleg of the mouse was hung on a horizontal wire, having a diameter of 1.2 mm and fixed at a level of 30 cm, three times consecutively. […] Thus, ED5 0 was determined for evaluation. […] Diazepam and buspirone were 2.2 mg/kg and 427.8 mg/kg, respectively, in ED5 0.

[2] = system: ddY mice; experiment: Sedative effect (spontaneous locomotor activity), second part
Experimental: Sedative Effect (Spontaneous locomotor activity)
as §2
The test was conducted with reference to a method described in “Evaluation of Medicinal Efficacies (1), Pharmacological Test Method (I), Basic Lectures on Development of Pharmaceuticals,” 50˜54(1971). More specifically, the group of mice were given the test drug and thereafter measured the amount of spontaneous locomotor activity for 10 minutes per mouse using Animex MK-110 (Muromachi Kikai Co., Ltd.).

[3] = system: ddY mice; experiment: Effect on central nervous system depressant (ethanol enhancing method), second part
Experimental: Effect on central nervous system depressant (Ethanol enhancing method)
Compound 1′a-1, the comparison compound, diazepam or buspirone was suspended in a 0.5% sodium carboxymethyl cellulose solution, and the suspension was orally administered to 3- to 4-week-old male ddY mice (in groups of 6) in a volume of 10 ml/kg one hour before the start of experiment.
The test was conducted with reference to a method described in Japan. J. Pharmacol., 49, 337˜349(1989). More specifically, the group of mice were intraperitoneally given 25% ethanol at a dose of 20 ml/kg and checked for the time interval between loss and recovery of the righting reflex.

[4] = system: ddY mice; experiment: Anticonvulsant effect (pentylenetetrazol-induced convulsion method), second part; format: in vivo; details: for Anticonvulsant effect (in words): oral, dose of 300 mg/kg
Experimental: Anticonvulsant Effect (Pentylenetetrazol-induced Convulsion Method)
Compound 1′a-1, the comparison compound, diazepam or j buspirone was suspended, in a 0.5% sodium carboxymethyl cellulose solution, and the suspension was orally administered to 3- to 4-week-old maple ddY mice (in groups of 6) in a volume of 10 ml/kg one hour before the start of experiment.
The test was conducted with reference to a method described in “Evaluation of Medicinal Efficacies (1), Pharmacological Test Method (I), Basic Lectures on Development of Pharmaceuticals,” 167˜172(1971).

[5] = system: ddY mice; experiment: Acute toxicity test (number of deaths), second part; format: in vivo; details: 6 mice, observed for 3 days
[6] = system: Wistar rats; experiment: Anticonflict test (first part, Test Example 1); format: in vivo; details: for Frequency of water drinking behavior: 1 h before test, value relative to control = 100; for Anxiolytic effect in the anticonflict test (in words): oral, compounds at doses of 0.001 to 1.0 mg/kg
Experimental: (§4) Wistar rats (males weighing 140 to 160 g) were used for experiment in groups of 11 to 14.
The test compound, diazepam or buspirone was suspended in a 0.5 % sodiumn carboxymethyl cellulose solution, and the suspension was orally given to the animal in a volume of 5 mnl/kg one hour before the start of experiment.
With reference to a method described in “Process in Anxiolytics and Antidepresants,” ediled by Showa Ueki and Tatsuo Furukawa, Ishiyaku Shuppansha, 56-59 (1981) , the agents were tested using experimental boxes having a grid floor and a metal drinking tube in the floor. No water was supplied to the rats for 48 hours before the experiment. Upon lapse of first 24 hours, each group of rats were placed into the experimental box, permitted access to water for 30 seconds and caused to recognize the metal drinking tube. Upon lapse of further 24 hours with access to water prevented, the rats were placed into the box again and permitted access to water on condition that an electric current was passed between the metal drinking tube and the grid to give an electroshock for every 20 times of water drinking behavior to measure the frequency of water drinking behavior for 3 minutes.
The frequency is expessed by a value relative to the frequency of the control which is taken as 100.

[7] = system: Wistar rats; experiment: Elevated plus maze test; format: in vivo; details: for Ratio of entries into open arm: 1 h before test, relative to control = 100
Experimental: Wistar rats (males weighing 170 to 220 g) were used for experiment in groups of 4 to 9.
The test compound, diazepam or buspirone was suspended in a 0.5 %) sodium carboxymethyl cellulose solution, and the suspension was orally given to the animal in a volume of 5 ml/kg one hour before the start of experiment.
The test was conducted using an experimental device, Model BTA-2, Behavior Analysis System (product of Muromachi Kikai Co., Ltd.) with reference to a method described in Psychopharmacology, 99, 48˜53(1989). […] Each group of rats orally given the test drug were placed in the center square, and the behavior of the animals was recorded for 5 minutes using a behavior analyzer. The ratio of the number of entries into the open arm to the number of entries into all the arms was determined for evaluating the anxiolytic effect.
The ratio of entries into the open arm is expressed by a value relative to the ratio attained by the control which is taken as 100.

[8] = system: Wistar rats; experiment: Anticonflict test (second part, relieving rate of anxiety); format: in vivo; details: oral, dose of 1.0 mg/kg
Experimental: as §4
No water was supplied to the rats for 48 hours before the experiment. Upon lapse of first 24 hours, each group of rats were placed into the experimental box, permitted access to water for 30 seconds and caused to recognize the metal drinking tube. Upon lapse of further 24 hours with access to water prevented, the rats were placed into the box again and permitted access to water on condition that an electric current was passed between the metal drinking tube and the grid to give an electroshock for every 20 times of water drinking behavior to measure the frequency of water drinking behavior for 3 minutes. Anxiolytic effect was evaluated as relieving rate of anxiety as calculated by the following equation.

[9] = Acute toxicity test (LD50), first part; format: in vivo; details: mouse, in vivo; oral, male ddY mice, observed for 3 days
[10] = system: ddY mice; experiment: Muscle relaxant effect (traction method), first part; details: mouse, in vivo, po, 300 mg/kg
Experimental: as §1
(§5) Compound 3, Compound 13, diazepam or buspirone was suspended in a 0.5 % sodium carboxymethyl cellulose solution, and the suspension was orally administered to 3- to 4-week-old male ddY mice (in groups of 5) in a volume of 10 ml/kg one hour before the start of experiment.
as §3

[11] = system: ddY mice; experiment: Sedative effect (spontaneous locomotor activity), first part; details: mouse, in vivo, po, 300 mg/kg
Experimental: Sedative Effect (Spontaneous Locomotor Activity)
as §5
The test was conducted with reference to a method described in “Evaluation of Medicinal Efficacies (1), Pharmacological Test Method (1), Basic Lectures on Development of Pharmaceuticals,” 50˜54(1971). More specifically, the group of mice were given the test drug and thereafter measured the amount of spontaneous locomotor activity for 10 minutes per mouse rising Animex MK-110 (product of Muromachi Kikai Co., Ltd.).

[12] = in vivo; details: male, ddY, mouse, in vivo
Experimental: (§6) Effect On Central Nervous System Depressant
a. Pentobarbital Anesthetic Method
Compound 3, Compound 13, diazepam or buspirone was suspended in a 0.5 % sodium carboxymethyl cellulose solution, and the suspension was orally administered to 3- to 4-week-old male ddY mice (in groups of 5 to 10) in a volume of 10 ml/kg one hour before the start of experiment.
The test was conducted with reference to a method described in “Evaluation of Medicinal Efficacies (1), Pharmacological Test Method (1), Basic lectures on Development of Pharmaceuticals,” 144˜145(1971). More specifically, the group of mice were intraperitoneally given pentobarbital at a dose of 40 mg/kg and checked for sleeping time.

[13] = system: ddY mice; experiment: Effect on central nervous system depressant: ethanol enhancing method, first part; details: mouse, in vivo, po, 300 mg/kg
Experimental: as §6
b. Ethanol Enhancing Method
(§7) Compound 3, Compound 13, diazepam or buspirone was suspended in a 0.5 % sodium carboxymethyl cellulose solution, and the suspension was orally administered to 3- to 4-week-old male ddY mice (in groups of 6) in a volume of 10 ml/kg one hour before the start of experiment.
The test was conducted with reference to a method described in Japan. J. Pharmacol., 49, 337˜349(1989). More specifically, the group of mice were intraperitoneally given 25 % ethanol at a dose of 20 ml/kg and checked for the time interval between loss and recovery of the righting reflex.

[14] = system: ddY mice; experiment: Anticonvulsant effect (pentylenetetrazol-induced convulsion method), first part; format: in vivo; details: oral, dose of 300 mg/kg
Experimental: Anticonvulsant Effect (Pentylenetetrazol-Induced Convulsion Method)
as §7
The test was conducted with reference to a method described in “Evaluation of Medicinal Efficacies (1), Pharmacological Test Method (1), Basic lectures on Development of Pharmaceuticals,” 167˜172(1971).

COc1ccc(C(=O)N2C(=O)CC[C@H]3[C@H](O)CC[C@H]32)cc1 (racemic) [Compound 1′a-1, (1RS, 6RS, 7RS)-7-hydroxy-2-(4-methoxybenzoyl)-2-azabicyclo-[4.3.0]nonan-3-one]
Muscle relaxant effect (in words) ([1]; mouse, in vivo, po, 300 mg/kg): no muscle relaxant effect
Sedative effect (in words) ([2]; mouse, in vivo, po, 300 mg/kg): no sedative effect
Ethanol enhancing effect (in words) ([3]; mouse, in vivo, po, 300 mg/kg): no ethanol enhancing effect
Anticonvulsant effect (in words) [4]: no anticonvulsant effect
Number of death ([5]; dose 2000 mg/kg oral): 0
Number of death ([5]; dose 3000 mg/kg oral): 2

COc1ccc(C(=O)N2C(=O)CC[C@@H]3[C@H]2CC[C@H]3OCc2ccccc2)cc1 (racemic) [Compound 4a-1, (1RS, 6RS, 7RS)-7-benzyloxy-2-(4-methoxybenzoyl)-2-azabicyclo[4.3.0]nonan-3-one]
melting point: 109.5 °C

O=C1CC2(CCCC2)CC(=O)N1CCCCN1CCN(c2ncccn2)CC1 [Buspirone, buspirone, reference compound]
Frequency of water drinking behavior ([6]; dose 1.0 mg/kg oral): 103%
Anxiolytic effect in the anticonflict test (in words) [6]: almost ineffective
Ratio of entries into open arm ([7]; dose 1.0 oral): 98
Ratio of entries into open arm ([7]; dose 10.0 oral): 93
Anxiolytic effect in the anticonflict test (in words) [8]: almost ineffective
ED6O, sedative effect (spontaneous locomotor activity up to 50% of control) ([2]; male, ddY, mouse, in vivo, po, 1 h): 149.7 mg/kg
ED50 ([4]; Mus musculus, 1 h, read-out: ED50, anticonvulsant effect (no death within 60 minutes)): ≥ 300 mg/kg

O=C1CC2CCCCC2N1 (centres unmarked) [Comparison Compound, 2-azabicyclo[3.4.0]nonane-2-one]
Muscle relaxant effect (in words) ([1]; oral, dose of 300 mg/kg): no muscle relaxant effect
Sedative effect (in words) ([2]; oral, dose of 300 mg/kg): no sedative effect
Ethanol enhancing effect (in words) ([3]; oral, dose of 300 mg/kg): no ethanol enhancing effect
Anticonvulsant effect (in words) [4]: no anticonvulsant effect

COc1ccc(C(=O)N2C(=O)CCC3CCCCC32)cc1 (centres unmarked) [Compound 1, 2-(4-methoxybenzoyl)-2-azabicyclo[4.4.0)decane-3-one]
Frequency of water drinking behavior ([6]; dose 0.01 mg/kg oral): 138%
Frequency of water drinking behavior ([6]; dose 0.1 mg/kg oral): 140%
Frequency of water drinking behavior ([6]; dose 1.0 mg/kg oral): 122%
Anxiolytic effect in the anticonflict test (in words) [6]: increase in the frequency of water drinking behavior
LD50 at 3 days [9]: > 2000 mg/kg

COc1ccc(C(=O)N2C(=O)CCC3CCCC32)cc1 (centres unmarked) [Compound 3, 2-(4-methoxybenzoyl)-2-azabicyclo[4.3.0]nonane-3-one]
Frequency of water drinking behavior ([6]; dose 0.001 mg/kg oral): 126%
Frequency of water drinking behavior ([6]; dose 0.01 mg/kg oral): 162%
Frequency of water drinking behavior ([6]; dose 0.1 mg/kg oral): 164%
Frequency of water drinking behavior ([6]; dose 1.0 mg/kg oral): 166%
Anxiolytic effect in the anticonflict test (in words) [6]: increase in the frequency of water drinking behavior
Ratio of entries into open arm ([7]; dose 0.001 oral): 195
Ratio of entries into open arm ([7]; dose 0.01 oral): 219
Ratio of entries into open arm ([7]; dose 0.1 oral): 248
Anxiolytic effect in the elevated plus maze (in words) ([7]; oral, dose of 0.001 mg/kg or greater): increase in the number of entries into the open arm
Muscle relaxant effect (in words) [10]: no muscle relaxant effect
Sedative effect (in words) [11]: no sedative effect
ED50 at 1 h [12]: ≥ 300 mg/kg
Ethanol enhancing effect (in words) [13]: no ethanol enhancing effect
Anticonvulsant effect (in words) [14]: no anticonvtilsant effect
LD50 at 3 days [9]: > 2000 mg/kg

COc1ccc(C(=O)N2C(=O)CC3CCCCC32)cc1 (centres unmarked) [Compound 11, 7-(4-methoxybenzoyl)-7-azabicyclo[4.3.0]nonane-8-one]
Frequency of water drinking behavior ([6]; dose 1.0 mg/kg oral): 133%
Anxiolytic effect in the anticonflict test (in words) [6]: increase in the frequency of water drinking behavior
LD50 at 3 days [9]: > 2000 mg/kg
